# Source: patent US20220381657A1, “METHOD FOR PREPARING BIOLOGICAL MATERIAL HAVING EXCELLENT LIGHT-TRANSMITTING PROPERTY” (RIKEN, priority 2016, published 2022)
# System: fixed brain tissue suspension
# Assay: 1st delipidation assay: solubilization of fixed brain tissue suspension, turbidity at 600 nm
# Set-up: species or system mice
# Settings: not given
# Method: Specifically, brains taken out of mice were sheared with a utility knife and then were disrupted by ultrasonication. To each of the resultant suspensions, an equal volume of 8% PFA solution was added to perform fixation at 4° C. for 1 hour. The resultant mixture was centrifuged to remove the supernatant, and the fixed brain tissue was washed with PBS for 3 times. PBS was added so as to obtain 2 mL of a fixed brain tissue suspension per brain. The fixed brain tissue suspension was diluted by 3.5 folds. To 20 μL of the resultant suspension, 130 μL of each 10 wt % chemical was added and was shaken at 37° C. overnight. Thus obtained mixed solutions were subjected to absorbance (turbidity) measurement at 600 nm. It is expected that a chemical solution which reduces the turbidity of a fixed brain suspension allows reducing light scattering by solubilizing lipids, which act as a scattering factor, in the brain tissue.
row,Compound,1st delipidation assay Relative OD600
1,"C[C@H](CCC(=O)O)[C@H]1CC[C@H]2[C@@H]3[C@H](O)C[C@@H]4C[C@H](O)CC[C@]4(C)[C@H]3C[C@H](O)[C@]12C [#0566, Sodium Cholate]",0.254
2,Nonidet P-40 [#1511],0.193

# Same assay, conditions: Table 1; 10 wt % chemical, fixed mouse brain suspension, 37° C. overnight; PBS = 1.000
row,Compound,1st delipidation assay Relative OD600
1,"C1CCNCC1 [#1097, Piperidine]",0.166
2,"N.O=C(O)C(F)(F)C(F)(F)C(F)(F)C(F)(F)C(F)(F)C(F)(F)C(F)(F)F [#1162, Ammonium pentadecafluorooctanoate]",0.318
3,"CCCCCCCCCCCCOS(=O)(=O)[O-].[Li+] [#1310, Lithium dodecyl sulfate]",0.155
4,"CN1C2CCC1CC(O)C2 (stereo not drawn) [#1462, Tropine]",0.292
5,Isobutylamine [#1043],0.251
6,Isopropylamine [#1006],0.318

# System: bovine coagulated blood
# Assay: Decoloring screening: heme eluted from bovine coagulated blood (OD420-OD700)
# Settings: decolorization; OD420 calibrated by OD700
# Method: A high-throughput screening system for evaluating the decoloring ability of various compounds was constructed. The screening system involved adding an aqueous solution of each compound to bovine coagulated blood and then measuring the absorbance of heme collected in the supernatant.
# Specifically, to bovine blood, an equal amount of 8% PFA solution was added, and reacted at 4° C. overnight. The mixed liquid was centrifuged at 1500×g for 5 minutes, and the supernatant containing PFA was discarded. Then, the same amount of PBS as the original volume of blood was added to prepare a coagulated blood sample. To 150 μL of 10 wt % aqueous solution of each compound, 50 μL of the coagulated blood sample was added, and reacted at 37° C. overnight. The reaction solution was centrifuged at 1500×g for 5 minutes, and then 100 μL of the supernatant was added to a plate so as to be subjected to absorbance measurement. A sample which is suspended in water instead of being dissolved in the water has a weak decoloring effect, but none the less has a high absorbance value. […]
row,Compound,700 nm calibrated 420 nm Average
1,"NCCCOCCCN [#0394, Bis(3-aminopropyl) ether]",3.27
2,"NCC1CCOCC1 [#0467, 4-Aminomethyl-tetrahydropyran]",1.52
3,"CC(=O)O.CCCCCCCCCCCCN [#0627, Dodecylamine acetate]",2.21
4,CCC(N)CCN (stereo not drawn) [#0678],1.71
5,CCCCCCCCCCCC[N+](C)(C)CCCS(=O)(=O)[O-] [#0694],2.24
6,"CCN(CC)CCN [#0779, N,N-Diethyl-ethylenediamine]",1.39
7,NCCCCN [#0783],2.21
8,"NC(=O)c1cccnc1 [#0855, nicotinamide]",2.63
9,"CCCCCCCCCCCCOS(=O)(=O)[O-].[Na+] [#1035, Sodium dodecyl sulfate]",1.28
10,NCC(O)CN [#1062],1.13
11,c1cnccn1 [#1086],1.41
12,"CC(O)CN(CCN(CC(C)O)CC(C)O)CCN(CC(C)O)CC(C)O (stereo not drawn) [#1105, N,N,N′,N″,N″-Pentakis(2-hydroxypropyl) diethylene-triamine]",1.20
13,"c1cnc(N2CCNCC2)nc1 [#1167, 1-(2-Pyrimidyl) piperazine]",1.39
14,"OCCCC1CCN(CCO)CC1 [#1226, 1-(2-Hydroxyethyl)-4-(3-hydroxypropyl) piperidine]",2.20
15,"CC(CN)CCCN (stereo not drawn) [#1267, 2-Methyl-1,5-diaminopentane]",1.48
16,OCCCCCBr [#1367],1.48
17,"COc1ccc(CO)cc1OC [#1422, Veratryl alcohol]",1.46
18,"C[C@H](CCC(=O)[O-])[C@H]1CC[C@H]2[C@@H]3CC[C@@H]4C[C@H](O)CC[C@]4(C)[C@H]3C[C@H](O)[C@]12C.[Na+] [#1507, Sodium deoxycholate]",1.27
19,"OCCN(CCO)CCN(CCO)CCO [#1537, N,N,N′,N′-Tetrakis(2-hydroxyethyl) ethylenediamine]",1.29

# Same assay, conditions: decolorization; integrated absorbance 500-700 nm
row,Compound,integrated value 500-700 nm Average
1,"NCCCOCCCN [#0394, Bis(3-aminopropyl) ether]",1.85
2,"NCC1CCOCC1 [#0467, 4-Aminomethyl-tetrahydropyran]",1.13
3,"CC(=O)O.CCCCCCCCCCCCN [#0627, Dodecylamine acetate]",1.74
4,CCC(N)CCN (stereo not drawn) [#0678],1.15
5,CCCCCCCCCCCC[N+](C)(C)CCCS(=O)(=O)[O-] [#0694],2.53
6,"CCN(CC)CCN [#0779, N,N-Diethyl-ethylenediamine]",0.81
7,NCCCCN [#0783],1.42
8,"NC(=O)c1cccnc1 [#0855, nicotinamide]",2.45
9,"CCCCCCCCCCCCOS(=O)(=O)[O-].[Na+] [#1035, Sodium dodecyl sulfate]",1.32
10,NCC(O)CN [#1062],0.80
11,c1cnccn1 [#1086],1.39
12,"CC(O)CN(CCN(CC(C)O)CC(C)O)CCN(CC(C)O)CC(C)O (stereo not drawn) [#1105, N,N,N′,N″,N″-Pentakis(2-hydroxypropyl) diethylene-triamine]",1.05
13,"c1cnc(N2CCNCC2)nc1 [#1167, 1-(2-Pyrimidyl) piperazine]",1.09
14,"OCCCC1CCN(CCO)CC1 [#1226, 1-(2-Hydroxyethyl)-4-(3-hydroxypropyl) piperidine]",2.29
15,"CC(CN)CCCN (stereo not drawn) [#1267, 2-Methyl-1,5-diaminopentane]",1.09
16,OCCCCCBr [#1367],0.06
17,"COc1ccc(CO)cc1OC [#1422, Veratryl alcohol]",1.28
18,"C[C@H](CCC(=O)[O-])[C@H]1CC[C@H]2[C@@H]3CC[C@@H]4C[C@H](O)CC[C@]4(C)[C@H]3C[C@H](O)[C@]12C.[Na+] [#1507, Sodium deoxycholate]",1.03
19,"OCCN(CCO)CCN(CCO)CCO [#1537, N,N,N′,N′-Tetrakis(2-hydroxyethyl) ethylenediamine]",1.63

# System: Serius
# Assay: not given
# Settings: relative fluorescence
row,Compound,Fluorescence quench Average
1,"NCCCOCCCN [#0394, Bis(3-aminopropyl) ether]",0.54
2,"NCC1CCOCC1 [#0467, 4-Aminomethyl-tetrahydropyran]",0.65
3,"CC(=O)O.CCCCCCCCCCCCN [#0627, Dodecylamine acetate]",1.05
4,CCC(N)CCN (stereo not drawn) [#0678],0.60
5,CCCCCCCCCCCC[N+](C)(C)CCCS(=O)(=O)[O-] [#0694],1.09
6,"CCN(CC)CCN [#0779, N,N-Diethyl-ethylenediamine]",0.70
7,NCCCCN [#0783],0.60
8,"NC(=O)c1cccnc1 [#0855, nicotinamide]",0.75
9,"CCCCCCCCCCCCOS(=O)(=O)[O-].[Na+] [#1035, Sodium dodecyl sulfate]",1.15
10,NCC(O)CN [#1062],0.67
11,c1cnccn1 [#1086],0.67
12,"CC(O)CN(CCN(CC(C)O)CC(C)O)CCN(CC(C)O)CC(C)O (stereo not drawn) [#1105, N,N,N′,N″,N″-Pentakis(2-hydroxypropyl) diethylene-triamine]",0.74
13,"c1cnc(N2CCNCC2)nc1 [#1167, 1-(2-Pyrimidyl) piperazine]",0.01
14,"OCCCC1CCN(CCO)CC1 [#1226, 1-(2-Hydroxyethyl)-4-(3-hydroxypropyl) piperidine]",0.76
15,"CC(CN)CCCN (stereo not drawn) [#1267, 2-Methyl-1,5-diaminopentane]",0.51
16,OCCCCCBr [#1367],−0.01
17,"COc1ccc(CO)cc1OC [#1422, Veratryl alcohol]",0.89
18,"C[C@H](CCC(=O)[O-])[C@H]1CC[C@H]2[C@@H]3CC[C@@H]4C[C@H](O)CC[C@]4(C)[C@H]3C[C@H](O)[C@]12C.[Na+] [#1507, Sodium deoxycholate]",1.03
19,"OCCN(CCO)CCN(CCO)CCO [#1537, N,N,N′,N′-Tetrakis(2-hydroxyethyl) ethylenediamine]",0.66

# System: not given
# Assay: not given
# Settings: OD at 400 nm of the chemical
row,Compound,400 nm
1,"NCCCOCCCN [#0394, Bis(3-aminopropyl) ether]",0.067
2,"NCC1CCOCC1 [#0467, 4-Aminomethyl-tetrahydropyran]",0.049
3,"CC(=O)O.CCCCCCCCCCCCN [#0627, Dodecylamine acetate]",0.053
4,CCC(N)CCN (stereo not drawn) [#0678],0.049
5,CCCCCCCCCCCC[N+](C)(C)CCCS(=O)(=O)[O-] [#0694],0.055
6,"CCN(CC)CCN [#0779, N,N-Diethyl-ethylenediamine]",0.051
7,NCCCCN [#0783],0.05
8,"NC(=O)c1cccnc1 [#0855, nicotinamide]",0.052
9,"CCCCCCCCCCCCOS(=O)(=O)[O-].[Na+] [#1035, Sodium dodecyl sulfate]",0.048
10,NCC(O)CN [#1062],0.054
11,c1cnccn1 [#1086],0.051
12,"CC(O)CN(CCN(CC(C)O)CC(C)O)CCN(CC(C)O)CC(C)O (stereo not drawn) [#1105, N,N,N′,N″,N″-Pentakis(2-hydroxypropyl) diethylene-triamine]",0.057
13,"c1cnc(N2CCNCC2)nc1 [#1167, 1-(2-Pyrimidyl) piperazine]",0.084
14,"OCCCC1CCN(CCO)CC1 [#1226, 1-(2-Hydroxyethyl)-4-(3-hydroxypropyl) piperidine]",0.05
15,"CC(CN)CCCN (stereo not drawn) [#1267, 2-Methyl-1,5-diaminopentane]",0.08
16,OCCCCCBr [#1367],0.055
17,"COc1ccc(CO)cc1OC [#1422, Veratryl alcohol]",0.05
18,"C[C@H](CCC(=O)[O-])[C@H]1CC[C@H]2[C@@H]3CC[C@@H]4C[C@H](O)CC[C@]4(C)[C@H]3C[C@H](O)[C@]12C.[Na+] [#1507, Sodium deoxycholate]",0.054
19,"OCCN(CCO)CCN(CCO)CCO [#1537, N,N,N′,N′-Tetrakis(2-hydroxyethyl) ethylenediamine]",0.048

# Same assay, conditions: Table 1
row,Compound,OD400
1,"CC(=O)O.CCCCCCCCCCCCN [#0627, Dodecylamine acetate]",0.053
2,"CCCCCCCCCCCCOS(=O)(=O)[O-].[Na+] [#1035, Sodium dodecyl sulfate]",0.048
3,"CC(CN)CCCN (stereo not drawn) [#1267, 2-Methyl-1,5-diaminopentane]",0.08
4,"C[C@H](CCC(=O)[O-])[C@H]1CC[C@H]2[C@@H]3CC[C@@H]4C[C@H](O)CC[C@]4(C)[C@H]3C[C@H](O)[C@]12C.[Na+] [#1507, Sodium deoxycholate]",0.054

# System: not given
# Assay: not given
# Settings: Table 1
row,Compound,pH
1,"CC(=O)O.CCCCCCCCCCCCN [#0627, Dodecylamine acetate]",10.3
2,"CCCCCCCCCCCCOS(=O)(=O)[O-].[Na+] [#1035, Sodium dodecyl sulfate]",6.3
3,"CC(CN)CCCN (stereo not drawn) [#1267, 2-Methyl-1,5-diaminopentane]",12.9
4,"C[C@H](CCC(=O)[O-])[C@H]1CC[C@H]2[C@@H]3CC[C@@H]4C[C@H](O)CC[C@]4(C)[C@H]3C[C@H](O)[C@]12C.[Na+] [#1507, Sodium deoxycholate]",7.9

# Same assay, conditions: […]
row,Compound,pH
1,"NCCCOCCCN [#0394, Bis(3-aminopropyl) ether]",13.2
2,"NCC1CCOCC1 [#0467, 4-Aminomethyl-tetrahydropyran]",12.9
3,"CC(=O)O.CCCCCCCCCCCCN [#0627, Dodecylamine acetate]",10.3
4,CCC(N)CCN (stereo not drawn) [#0678],13.6
5,CCCCCCCCCCCC[N+](C)(C)CCCS(=O)(=O)[O-] [#0694],8.4
6,"CCN(CC)CCN [#0779, N,N-Diethyl-ethylenediamine]",13.6
7,NCCCCN [#0783],14.0
8,"NC(=O)c1cccnc1 [#0855, nicotinamide]",10.4
9,"CCCCCCCCCCCCOS(=O)(=O)[O-].[Na+] [#1035, Sodium dodecyl sulfate]",6.3
10,NCC(O)CN [#1062],12.8
11,c1cnccn1 [#1086],8.6
12,"CC(O)CN(CCN(CC(C)O)CC(C)O)CCN(CC(C)O)CC(C)O (stereo not drawn) [#1105, N,N,N′,N″,N″-Pentakis(2-hydroxypropyl) diethylene-triamine]",13.2
13,"c1cnc(N2CCNCC2)nc1 [#1167, 1-(2-Pyrimidyl) piperazine]",12.5
14,"OCCCC1CCN(CCO)CC1 [#1226, 1-(2-Hydroxyethyl)-4-(3-hydroxypropyl) piperidine]",14.1
15,"CC(CN)CCCN (stereo not drawn) [#1267, 2-Methyl-1,5-diaminopentane]",12.9
16,OCCCCCBr [#1367],2.9
17,"COc1ccc(CO)cc1OC [#1422, Veratryl alcohol]",6.1
18,"C[C@H](CCC(=O)[O-])[C@H]1CC[C@H]2[C@@H]3CC[C@@H]4C[C@H](O)CC[C@]4(C)[C@H]3C[C@H](O)[C@]12C.[Na+] [#1507, Sodium deoxycholate]",7.9
19,"OCCN(CCO)CCN(CCO)CCO [#1537, N,N,N′,N′-Tetrakis(2-hydroxyethyl) ethylenediamine]",11.7
